Laboratory results published in patent US11591352B2, “Method for treatment of senescence-related disorders” (SPRINGTIDE VENTURES S.R.O., priority 2016, dated 2023).
Read-outs that look alike come from different tables or passages of the source.

Assays:
[1] = system: senescent retinal pigment epithelial cells (RPE) treated with BrdU; experiment: Viability (annexin V/Hoechst) of senescent RPE cells; conditions: for % of Annexin V-/Hoechst-cells: BrdU; for selectivity of cytotoxicity for senescent versus control cells (in words): senescent (BrdU) vs control RPE cells
Experimental: (§3) The effect of compounds 7, 8, 10, 15 on primary senescent cells (retinal pigment epithelial cells (RPE) treated for 8 days with 100 μM 5-bromo-2-deoxyuridine (BrdU)) was tested.

[2] = system: control retinal pigment epithelial cells (RPE); experiment: Viability (annexin V/Hoechst) of control RPE cells; assay type: cell-based; conditions: for % of Annexin V-/Hoechst-cells: ctrl
Experimental: as §3

RPE (control) = experiment: Viability (Annexin V/Hoechst) of non-senescent control cells; assay type: cell-based; conditions: 48 h
Experimental: (§1) We tested the effect of compound 8 on cultured senescent pancreatic cells. We used three pancreatic cell lines (PANC-1, PaTu and BxPC-3) exposed to 100 μM BrdU for 6 days to induce senescence. These senescent cells were treated with different doses of compound 8 for 48 h and their viability was assessed. […] RPE cells, as the most sensitive tested cells, were used as a control to establish the concentration at which compound 8 is not toxic for non-senescent cells.

[3] = system: RPE cells (siNC / siANT2); experiment: Viability of RPE cells after ANT2 downregulation by siRNA; assay type: cell-based
Description: (§2) Adenin nucleotid translocase 2 (ANT2) is a protein important for translocation of ATP from cytoplasm to mitochondria unlike two other members of ANT family, ANT1 and ANT3, participating in classical transfer of ADP into mitochondria via complex V during mitochondrial respiration. ANT2 plays a key role in maintenance of mitochondrial potential and in preserving intact mitochondria, especially in tumour cells. […] All these experiments show a key role of ANT2 in compound 8 resistance.

[4] = system: p16, p21 and PAI mRNA in FVB/cneu spontaneous tumours; experiment: qRT PCR of senescent markers in spontaneous tumours; assay type: in vivo, FVB mice
[5] = system: p16, p21 and plasminogen activator inhibitor (PAI) mRNA; experiment: qRT PCR of senescent markers in organs of young and old FVB mice; assay type: in vivo
BxPC-3 (senescent) = experiment: Viability (Annexin V/Hoechst) of senescent pancreatic cells; assay type: cell-based; conditions: 48 h
Experimental: as §1

PaTu (senescent) = experiment: as above; assay type: cell-based; conditions: 48 h
Experimental: as §1

PANC-1 (senescent) = experiment: as above; assay type: cell-based; conditions: 48 h
Experimental: as §1

RPE cells = experiment: Lactate production in RPE cells; assay type: cell-based
Description: as §2

[6] = system: p16, p21 and PAI mRNA in 4T1 cell-derived tumours; experiment: qRT PCR of senescent markers in 4T1 cell-derived tumours; assay type: in vivo, Balb-c mice
[7] = system: RPE cells with inducible ANT2; experiment: Viability of RPE cells transfected with inducible ANT2; assay type: cell-based
Description: as §2

[8] = system: senescent retinal pigment epithelial cells (RPE) treated with BrdU
Experimental: as §3

[9] = system: B-gal positive (senescent) cells in lungs; experiment: B-gal staining of lungs of young and naturally old FVB mice treated with compound 8; assay type: in vivo; conditions: for % of B-gal positive cells: 1 μg/g every week for 4 weeks
Experimental: We first analyzed the presence of senescent cells (using B-galactosidase (B-gal) staining) in organs in these two groups. From all tested organs (lungs, brain, white adipose tissue and stomach), we detected the biggest difference in presence of B-gal-positive cells in lungs (not shown). In the next step we treated the mice (6×19 month old mice+6×2 month old mice) with 1 dose of compound 8 (1 μg of compound 8/1 g mouse) every week for a period of 4 weeks. Mice (5×19 month old mice+6×2 month old mice) treated only with a corn oil without compound 8 were used as a control. After 4 weeks we removed lungs and detected percentage of B-gal positive cells in the tissues.

[10] = system: p16 and p21 mRNA in PDX (triple-negative breast tumour); experiment: qRT PCR of senescence markers in patient-derived xenografts; assay type: in vivo, NOD scid gamma mice
Experimental: Importantly, we repeated this experiment using patient-derived xenografts (PDXs; triple-negative breast tumour) transplanted into NOD scid gamma mice and treated with compound 8 (0.375 mg of compound 8/mouse, twice per week for a period of 2-3 weeks).

[11] = FVB/cneu tumors, treated, 0.2 mg/mouse twice per week for 2-3 weeks
[12] = BALBe/4T1 tumors, treated, 0.2 mg/mouse twice per week for 2-3 weeks
[13] = PDX tumors, treated, 0.375 mg/mouse twice per week for 2-3 weeks

## CC/C(=C(\c1ccccc1)c1ccc(OCCN(C)C)cc1)c1ccccc1 [Tamoxifen]
[1]; 10 μM, both senescent and control cells
  decrease of viability (in words): by about half
[1]; 20 μM, both senescent and control cells
  cytotoxicity (in words): highly cytotoxic
[1]; 1 μM
  % of Annexin V-/Hoechst-cells: 73.8%
[1]; 2.5 μM
  % of Annexin V-/Hoechst-cells: 73.0%
[1]; 5 μM
  % of Annexin V-/Hoechst-cells: 70.1%
[1]; 10 μM
  % of Annexin V-/Hoechst-cells: 33.8%
[1]; 20 μM
  % of Annexin V-/Hoechst-cells: 4.3%
[1]
  selectivity of cytotoxicity for senescent versus control cells (in words): does not at any tested concentration have a significantly higher toxicity for senescent cells than for control cells
[1]; up to 5 μM, senescent and control cells
  cytotoxicity (in words): does not show cytotoxicity
[2]; 1 μM
  % of Annexin V-/Hoechst-cells: 97.0%
[2]; 2.5 μM
  % of Annexin V-/Hoechst-cells: 96.7%
[2]; 5 μM
  % of Annexin V-/Hoechst-cells: 94.7%
[2]; 10 μM
  % of Annexin V-/Hoechst-cells: 55.8%
[2]; 20 μM
  % of Annexin V-/Hoechst-cells: 2.15%

## CN(C)CCOc1ccc(/C(=C(/CCCCCCCCCCBr)c2ccccc2)c2ccccc2)cc1 [compound 7]
[1]; 0.05 μM
  % of Annexin V-/Hoechst-cells: 80.5%
[1]; 0.1 μM
  % of Annexin V-/Hoechst-cells: 78.3%
[1]; 0.5 μM
  % of Annexin V-/Hoechst-cells: 55.3%
[1]
  selectivity of cytotoxicity for senescent versus control cells (in words): selectively more cytotoxic to senescent cells
[2]; 0.05 μM
  % of Annexin V-/Hoechst-cells: 94.6%
[2]; 0.1 μM
  % of Annexin V-/Hoechst-cells: 95.1%
[2]; 0.5 μM
  % of Annexin V-/Hoechst-cells: 91.4%

## CN(C)CCOc1ccc(/C(=C(/CCCCCCCCCC[P+](c2ccccc2)(c2ccccc2)c2ccccc2)c2ccccc2)c2ccccc2)cc1.[Br-] [compound 8]
RPE (control); 0.1 μM
  % of AnnexinV-/Hoechst-cells: 98.9 (+/− 0.14) %
RPE (control); 0.5 μM
  % of AnnexinV-/Hoechst-cells: 98.8 (+/− 0.21) %
RPE (control); 1 μM
  % of AnnexinV-/Hoechst-cells: 98.3 (+/− 0.14) %
RPE (control); 2.5 μM
  % of AnnexinV-/Hoechst-cells: 99.1 (+/− 0.35) %
[3]; RPE siANT2 treated
  % of AnnexinV-/Hoechst-cells: 20.7%
[3]; RPE siNC treated
  % of AnnexinV-/Hoechst-cells: 90.5%
[3]; RPE, ANT2 siRNA
  death of control cells with downregulated ANT2 after treatment (in words): increased death of these cells
[4]; FVB mice with spontaneous tumours, 0.2 mg/mouse twice per week, 2-3 weeks
  increase of senescent markers p16, p21 and PAI on the mRNA level (in words): did not observe any increase
[4]; [11]
  PAI mRNA fold change: 1.93 (+/− 1.19) fold change
  p16 mRNA fold change: 0.39 (+/− 0.24) fold change
  p21 mRNA fold change: 1.94 (+/− 1.43) fold change
[5]; kidney, 2 m treated
  PAI mRNA fold change: 0.47 (+/− 0.09) fold change
  p16 mRNA fold change: 0.02 (+/− 0.01) fold change
  p21 mRNA fold change: 0.25 (+/− 0.05) fold change
[5]; kidney, 19 m treated
  PAI mRNA fold change: 0.79 (+/− 0.17) fold change
  p16 mRNA fold change: 0.79 (+/− 0.31) fold change
  p21 mRNA fold change: 0.34 (+/− 0.11) fold change
[5]; lungs, 2 m treated
  PAI mRNA fold change: 0.69 (+/− 0.12) fold change
  p16 mRNA fold change: 0.63 (+/− 0.07) fold change
  p21 mRNA fold change: 0.30 (+/− 0.06) fold change
[5]; lungs, 19 m treated
  PAI mRNA fold change: 0.93 (+/− 0.22) fold change
  p16 mRNA fold change: 0.74 (+/− 0.12) fold change
  p21 mRNA fold change: 0.39 (+/− 0.03) fold change
[5]; old mouse tissue
  level of senescent markers p16, p21, PAI mRNA after treatment (in words): decreased almost to control levels
BxPC-3 (senescent); 0.1 μM
  % of AnnexinV-/Hoechst-cells: 47.7 (+/− 0.49) %
BxPC-3 (senescent); 0.5 μM
  % of AnnexinV-/Hoechst-cells: 35.9 (+/− 6.22) %
BxPC-3 (senescent); 1 μM
  % of AnnexinV-/Hoechst-cells: 4.8 (+/− 0.83) %
BxPC-3 (senescent); 2.5 μM
  % of AnnexinV-/Hoechst-cells: 3.9 (+/− 1.69) %
PaTu (senescent); 0.1 μM
  % of AnnexinV-/Hoechst-cells: 24.7 (+/− 3.25) %
PaTu (senescent); 0.5 μM
  % of AnnexinV-/Hoechst-cells: 10.3 (+/− 0.97) %
PaTu (senescent); 1 μM
  % of AnnexinV-/Hoechst-cells: 3.6 (+/− 3.24) %
PaTu (senescent); 2.5 μM
  % of AnnexinV-/Hoechst-cells: 2.4 (+/− 1.21) %
PANC-1 (senescent); 0.1 μM
  % of AnnexinV-/Hoechst-cells: 92.3 (+/− 0.78) %
PANC-1 (senescent); 0.5 μM
  % of AnnexinV-/Hoechst-cells: 92.7 (+/− 1.27) %
PANC-1 (senescent); 1 μM
  % of AnnexinV-/Hoechst-cells: 5.0 (+/− 1.97) %
PANC-1 (senescent); 2.5 μM
  % of AnnexinV-/Hoechst-cells: 3.1 (+/− 0.68) %
RPE cells; RPE BrdU (senescent) treated
  Lactate production (fold induction): 8.2 fold induction
RPE cells; RPE ctrl treated
  Lactate production (fold induction): 1.6 fold induction
[1]; 1 μM
  % of Annexin V-/Hoechst-cells: 67.0%
[1]; 2.5 μM
  % of Annexin V-/Hoechst-cells: 13.9%
[1]; 5 μM
  % of Annexin V-/Hoechst-cells: 0.8%
[1]; RPE, 100 μM BrdU for 8 days
  effect on elimination of senescent cells (in words): specific effect on elimination of senescent cells
[6]; [12]
  PAI mRNA fold change: 0.59 (+/− 0.22) fold change
  p16 mRNA fold change: 0.20 (+/− 0.08) fold change
  p21 mRNA fold change: 0.77 (+/− 0.18) fold change
[6]; Balb-c mice with 4T1 tumours, 0.2 mg/mouse twice per week, 2-3 weeks
  increase of senescent markers p16, p21 and PAI on the mRNA level (in words): did not observe any increase
[7]; RPE BrdU + ANT2
  resistance of senescent cells with induced ANT2 towards treatment (in words): increased resistance
[7]; RPE BrdU + ANT2 treated
  % of AnnexinV-/Hoechst-cells: 53.8%
[7]; RPE BrdU treated
  % of AnnexinV-/Hoechst-cells: 6.8%
[7]; RPE ctrl + ANT2 treated
  % of AnnexinV-/Hoechst-cells: 95.2%
[7]; RPE ctrl treated
  % of AnnexinV-/Hoechst-cells: 95.0%
[8]
  selectivity of cytotoxicity for senescent versus control cells (in words): selectively more cytotoxic to senescent cells
[9]; 2 month old mice
  % of B-gal positive cells: 0.3%
[9]; 19 month old mice
  % of B-gal positive cells: 0.7%
[9]; old mice
  number of B-gal-positive cells after treatment (in words): decrease of their number
[2]; control RPE
  effect on control cells (in words): without any effect on control cells
[2]; 1 μM
  % of Annexin V-/Hoechst-cells: 93.0%
[2]; 2.5 μM
  % of Annexin V-/Hoechst-cells: 90.3%
[2]; 5 μM
  % of Annexin V-/Hoechst-cells: 3.1%
[10]; PDX in NOD scid gamma mice, 0.375 mg/mouse twice per week, 2-3 weeks
  increase of senescence markers (in words): no increase
[10]; [13]
  p2l mRNA fold change: 0.72 (+/− 0.84) fold change
  p16 mRNA fold change: 1.34 (+/− 1.25) fold change
